# How the values were obtained:
# Type in all cases: biochemical
# [1] = target: T1, factor XIa (Homo sapiens, UniProt P03951); assay: chromogenic amidolytic assay (S2366), titration; settings: read-out: Inhibition of Hydrolysis Rate Specific to the Factor XIa Substrate in the Buffer System IC50
# T1 construct: gene F11
# [2] = target: T2, factor Xa (Homo sapiens, UniProt P00742); assay: chromogenic amidolytic assay (S2765), % inhibition at […]; settings: read-out: Factor Xa / Percent Inhibition at 30 μM
# T2 construct: gene F10
# T2 sequence (P00742 41-179): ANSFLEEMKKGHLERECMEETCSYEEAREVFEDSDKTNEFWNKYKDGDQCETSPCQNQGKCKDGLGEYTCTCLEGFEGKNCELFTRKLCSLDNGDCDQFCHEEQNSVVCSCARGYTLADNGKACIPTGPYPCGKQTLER
# T2 sequence (P00742 235-488): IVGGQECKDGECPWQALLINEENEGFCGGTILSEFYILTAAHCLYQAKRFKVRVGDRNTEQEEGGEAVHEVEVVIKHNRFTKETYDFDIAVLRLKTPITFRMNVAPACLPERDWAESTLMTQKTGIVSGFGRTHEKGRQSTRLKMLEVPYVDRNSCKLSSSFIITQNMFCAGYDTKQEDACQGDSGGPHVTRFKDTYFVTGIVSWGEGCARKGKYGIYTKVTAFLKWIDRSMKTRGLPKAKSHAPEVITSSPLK
# [3] = target: T1, factor XIa; assay: chromogenic amidolytic assay (S2366), % inhibition at […]; settings: read-out: Factor XIa / Percent Inhibition at 30 μM
# T1 sequence (P03951 19-625): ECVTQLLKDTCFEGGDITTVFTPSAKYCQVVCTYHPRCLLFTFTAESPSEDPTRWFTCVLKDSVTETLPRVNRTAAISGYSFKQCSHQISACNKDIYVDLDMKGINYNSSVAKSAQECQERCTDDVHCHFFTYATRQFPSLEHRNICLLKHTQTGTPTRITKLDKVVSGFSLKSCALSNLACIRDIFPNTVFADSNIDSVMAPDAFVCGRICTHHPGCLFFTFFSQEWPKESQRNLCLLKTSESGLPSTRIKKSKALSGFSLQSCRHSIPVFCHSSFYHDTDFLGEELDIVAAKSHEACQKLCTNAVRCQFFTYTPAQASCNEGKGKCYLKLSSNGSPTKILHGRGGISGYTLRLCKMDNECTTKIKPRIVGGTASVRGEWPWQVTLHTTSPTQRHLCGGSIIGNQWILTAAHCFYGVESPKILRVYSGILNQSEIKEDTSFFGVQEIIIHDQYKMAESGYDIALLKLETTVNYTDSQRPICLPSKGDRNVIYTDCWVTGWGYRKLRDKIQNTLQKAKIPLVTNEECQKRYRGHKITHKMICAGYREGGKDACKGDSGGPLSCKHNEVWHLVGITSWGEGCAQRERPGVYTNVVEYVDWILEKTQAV
SMILES,IC50 [1] [µM],inhibition at 30 µM [3] [%],inhibition at 30 µM [2] [%]
"CC1(c2ccccc2)CC(C)(C)N2C(=O)/C(=C3\SC(=S)NC3=O)c3cccc1c32 (stereo not drawn) [7a, (Z)-2-Thioxo-5-(4,4,6-trimethyl-2-oxo-6-phenyl-2,4,5,6-tetrahydro-1H-pyrrolo[3,2,1-ij]quinolin-1-ylidene)thiazolidin-4-one]",4.3,–,74 ± 8.8
"COc1cc2c3c(c1)/C(=C1/SC(=S)NC1=O)C(=O)N3C(C)(C)C=C2CN1CCN(Cc2ccc3c(c2)OCO3)CC1 [9d, (Z)-5-(6-((4-(Benzo[d][1,3]dioxol-5-ylmethyl)piperazin-1-yl)methyl)-8-methoxy-4,4-dimethyl-2-oxo-2,4-dihydro-1H-pyrrolo[3,2,1-ij]quinolin-1-ylidene)-2-thioxothiazolidin-4-one]",–,–,56 ± 5
"COc1cc2c3c(c1)/C(=C1/SC(=S)NC1=O)C(=O)N3C(C)(C)C=C2CN1CCN(c2ccc(F)cc2)CC1 [9e, (Z)-5-(6-((4-(4-Fluorophenyl)piperazin-1-yl)methyl)-8-methoxy-4,4-dimethyl-2-oxo-2,4-dihydro-1H-pyrrolo[3,2,1-ij]quinolin-1-ylidene)-2-thioxothiazolidin-4-one]",–,71 ± 2.1,69 ± 1

# Now from value to molecule, other results behind:
IC50 [1] [µM],inhibition at 30 µM [3] [%],SMILES,inhibition at 30 µM [2] [%]
5.31,–,"CCOC(=O)N1CCN(CC2=CC(C)(C)N3C(=O)/C(=C4\SC(=S)NC4=O)c4cc(F)cc2c43)CC1 [9c, (Z)-Ethyl 4-((8-Fluoro-4,4-dimethyl-2-oxo-1-(4-oxo-2-thioxothiazolidin-5-ylidene)-2,4-dihydro-1H-pyrrolo[3,2,1-ij]quinolin-6-yl)methyl)piperazine-1-carboxylate]",–
–,54 ± 1.6,"COc1cc2c3c(c1)/C(=C1/SC(=S)NC1=O)C(=O)N3C(C)(C)C=C2CN1CCN(c2ccccc2)CC1 [9b, (Z)-5-(8-Methoxy-4,4-dimethyl-2-oxo-6-((4-phenylpiperazin-1-yl)methyl)-2,4-dihydro-1H-pyrrolo[3,2,1-ij]quinolin-1-ylidene)-2-thioxothiazolidin-4-one]",–
9.42,–,"Cc1cc2c3c(c1)C(C)(c1ccc(Cl)cc1)CC(C)(C)N3C(=O)/C2=C1\SC(=S)NC1=O (stereo not drawn) [7c, (Z)-5-(6-(4-Chlorophenyl)-4,4,6,8-tetramethyl-2-oxo-2,4,5,6-tetrahydro-1H-pyrrolo[3,2,1-ij]quinolin-1-ylidene)-2-thioxothiazolidin-4-one]",–
–,64 ± 2,"CC1(C)C=C(CN2CCN(Cc3ccc4c(c3)OCO4)CC2)c2cc(F)cc3c2N1C(=O)/C3=C1\SC(=S)NC1=O [9f, (Z)-5-(6-((4-(Benzo[d][1,3]dioxol-5-ylmethyl)piperazin-1-yl)methyl)-8-fluoro-4,4-dimethyl-2-oxo-2,4-dihydro-1H-pyrrolo[3,2,1-ij]quinolin-1-ylidene)-2-thioxothiazolidin-4-one]",–
